Test results taken from patent US4659696A, “Pharmaceutical composition and its nasal or vaginal use” (Takeda Chemical Industries, Ltd., priority 1982, dated 1987).
Like-named read-outs stand apart in the source and are kept apart here. Blank lines part the entries; values can stand above or below the molecule they belong to.

What was measured:
[1] = Saturation solubility of cyclodextrin; type: physicochemical; settings: isotonic buffer solution (pH 7.4)
[2] = test system: prothrombin time (blood coagulation time); assay: Prothrombin time (blood coagulation time) after rectal heparin sodium in rats; type: in vivo, rat; settings: heparin sodium 600 U
Procedure: A 0.27 ml portion of each blood sample is placed in a polyethylene microtube containing 0.03 ml of 3.8 w/v percent of sodium citrate, the tube contents are stirred well and then centrifuged, and the plasma portion is subjected to prothrombin time (blood coagulation time) determination using a thromboplastin reagent (Simplastin, Ono Pharmaceutical Co., Japan). In the control group, the same procedure is followed with α-cyclodextrin-free heparin sodium. […] An increased absorption of heparin is thus shown.

[3] = rats, rectal suspension, 5-FU 50 mg/kg
Procedure: An amount (corresponding to 50 mg/kg) of 5-FU and 5 mg of α-cyclodextrin are finely milled in a mortar and added to 0.1 ml of physiological saline. The mixture is subjected to ultrasonic treatment (27 KHz, 5 minutes). The thus-obtained suspension is rectally administered to rats in the manner in Experimental Example 7. Blood samples are taken from the tail vein at timed intervals and 5-FU plasma levels are determined by bioassay using Micrococcus luteus ATCC-10240 as the test organism. In the control group, the procedure is followed with α-cyclodextrin-free 5-FU.

[4] = rat, in vivo
Procedure: Male SD strain rats (body weights 250 g, approx.) fasted for 16 hours are used in groups of at least 3 animals. Each animal is anesthetized with pentobarbital and administered nasal medication in accordance with the method described in International Journal of Pharmaceutics 7, 317 (1981). Then, 0.1 ml/kg of insulin solution is directly administered into the nasal cavity with a micropipette via the nostril.
In 0.1 ml of physiological saline are dissolved 100 μg of TAP-144 and 5 mg of α-cyclodextrin, and in the manner of Experimental Example 1, the 0.1 ml/kg equivalent of the solution is administered into the nasal cavity (the dose of TAP-144: […]).

[5] = rat, in vivo; remark: listed apart in the source
Procedure: (§1) SD-strain mature female rats (weighing about 270 g, 14 to 18 weeks old, in groups of 4 to 5 individuals) at diestrus as selected by the vaginal smear test covering a period of at least one week are anesthetized with pentobarbital and phenobarbital at 8-11 a.m., and a solution prepared by dissolving 500 μg of TAP-144 and 20 mg (2%), 50 mg (5%) or 100 mg (10%) of α-cyclodextrin in physiological saline in an amount to make 1 ml is administered into the vagina with about 12 mg of cotton soaked therewith at the dose level of 0.2 ml/kg (corresponding 100 μg/kg of TAP-144). Blood samples are taken from the tail vein at timed intervals and assayed for the serum TAP-144 level by radioimmunoassay [refer to Endocrinologia Japonica, vol.

in vivo = settings: female, SD, rat, 100 ug/kg, Concentration of TAP-144 in serum
Procedure: as §1

[6] = rats, rectal Witepsol W-35 suppository, sodium cefazolin 50 mg/kg
Procedure: Thereafter, blood sampling from the tail vein is performed at timed intervals and the plasma cefazolin level is determined by bioassay using Bacillus subtilis PCI-219 as the test organism.

Molecule: OC[C@H]1O[C@@H]2O[C@H]3[C@H](O)[C@@H](O)[C@@H](O[C@H]4[C@H](O)[C@@H](O)[C@@H](O[C@H]5[C@H](O)[C@@H](O)[C@@H](O[C@H]6[C@H](O)[C@@H](O)[C@@H](O[C@H]7[C@H](O)[C@@H](O)[C@@H](O[C@H]8[C@H](O)[C@@H](O)[C@@H](O[C@H]1[C@H](O)[C@H]2O)O[C@@H]8CO)O[C@@H]7CO)O[C@@H]6CO)O[C@@H]5CO)O[C@@H]4CO)O[C@@H]3CO [β-cyclodextrin]
saturation solubility [1]: about 1.8%

Molecule: heparin sodium
Blood coagulation time ([2]; 5% (w/v) α-cyclodextrin, 0.5 hr., before administration 14.3): 17.2 s
Blood coagulation time ([2]; 5% (w/v) α-cyclodextrin, 0.75 hr., before administration 14.3): 18.4 s
Blood coagulation time ([2]; 5% (w/v) α-cyclodextrin, 1 hr., before administration 14.3): 19.7 s
Blood coagulation time ([2]; 5% (w/v) α-cyclodextrin, 1.5 hr., before administration 14.3): 18.9 s
Blood coagulation time ([2]; 5% (w/v) α-cyclodextrin, 2 hr., before administration 14.3): 19.4 s
Blood coagulation time ([2]; no cyclodextrin, 0.5 hr., before administration 13.6): 14.3 s
Blood coagulation time ([2]; no cyclodextrin, 0.75 hr., before administration 13.6): 13.7 s
Blood coagulation time ([2]; no cyclodextrin, 1 hr., before administration 13.6): 14.7 s
Blood coagulation time ([2]; no cyclodextrin, 1.5 hr., before administration 13.6): 15.3 s
Blood coagulation time ([2]; no cyclodextrin, 2 hr., before administration 13.6): 14.7 s

Molecule: O=c1[nH]cc(F)c(=O)[nH]1 [5-FU, 5-fluorouracil]
AUC (0-4 hr.) ([3]; 5% (w/v) α-cyclodextrin): 4.0
Plasma level ([3]; 5% (w/v) α-cyclodextrin, 0.5 hr.): 1370 ng/mL
Plasma level ([3]; 5% (w/v) α-cyclodextrin, 1 hr.): 1720 ng/mL
Plasma level ([3]; 5% (w/v) α-cyclodextrin, 2 hr.): 1050 ng/mL
Plasma level ([3]; 5% (w/v) α-cyclodextrin, 4 hr.): 490 ng/mL
AUC (0-4 hr.) ([3]; no cyclodextrin): 1.1
Plasma level ([3]; no cyclodextrin, 0.5 hr.): 970 ng/mL
Plasma level ([3]; no cyclodextrin, 1 hr.): 430 ng/mL
Plasma level ([3]; no cyclodextrin, 2 hr.): 130 ng/mL
Plasma level ([3]; no cyclodextrin, 4 hr.): 60 ng/mL

increase in bioavailability [4]: about 3.5 times
Concentration of TAP-144 in serum ([5]; female, SD, 100 ug/kg, 0.5 h): 45.3 ng/mL
promotion of vaginal absorption [5]: about 6 times
level at 0.5 h (in vivo): 28.1 ng/mL
level at 2 h (in vivo): 39.2 ng/mL
level at 4 h (in vivo): 32.1 ng/mL
Molecule: CCNC(=O)[C@@H]1CCCN1C(=O)[C@H](CCCNC(=N)N)NC(=O)[C@H](CC(C)C)NC(=O)[C@@H](CC(C)C)NC(=O)[C@H](Cc1ccc(O)cc1)NC(=O)[C@H](CO)NC(=O)[C@H](Cc1c[nH]c2ccccc12)NC(=O)[C@H](Cc1c[nH]cn1)NC(=O)[C@@H]1CCC(=O)N1 [TAP-144]

Plasma level ([6]; 10% (w/w) α-cyclodextrin, 0.5 hr.): 3840 ng/mL
Plasma level ([6]; 10% (w/w) α-cyclodextrin, 1 hr.): 5320 ng/mL
Plasma level ([6]; 10% (w/w) α-cyclodextrin, 2 hr.): 7370 ng/mL
Plasma level ([6]; 10% (w/w) α-cyclodextrin, 3 hr.): 6260 ng/mL
Plasma level ([6]; 10% (w/w) α-cyclodextrin, 4 hr.): 5320 ng/mL
Plasma level ([6]; no cyclodextrin, 0.5 hr.): 1760 ng/mL
Plasma level ([6]; no cyclodextrin, 1 hr.): 2210 ng/mL
Plasma level ([6]; no cyclodextrin, 2 hr.): 3000 ng/mL
Plasma level ([6]; no cyclodextrin, 3 hr.): 3490 ng/mL
Plasma level ([6]; no cyclodextrin, 4 hr.): 2540 ng/mL
Molecule: Cc1nnc(SCC2=C(C(=O)O)N3C(=O)[C@@H](NC(=O)Cn4cnnn4)[C@H]3SC2)s1 [sodium cefazolin]
